Patent publication US10023593B2, “ALK kinase inhibitor, and preparation method and uses thereof” (BEIJING PEARL BIOTECHNOLOGY LIMITED LIABILITY COMPANY, priority 2014, dated 2018)

What was measured:
Wild Type ALK kinase = target: T1, Wild Type ALK kinase (Homo sapiens, UniProt Q9UM73); assay: HTRF KinEASE-TK assay, inhibitory activity on wild type ALK kinase; type: biochemical; details: wild type ALK 1 ng/μl, substrate 1 μM, 30° C. 35 minutes, read-out: Inhibition on ALK kinases (wildtype), IC50
T1 construct: purchased Sino-US Crown Bioscience, Inc. batch number ALK 20110607
T1 sequence (Q9UM73 19-1620): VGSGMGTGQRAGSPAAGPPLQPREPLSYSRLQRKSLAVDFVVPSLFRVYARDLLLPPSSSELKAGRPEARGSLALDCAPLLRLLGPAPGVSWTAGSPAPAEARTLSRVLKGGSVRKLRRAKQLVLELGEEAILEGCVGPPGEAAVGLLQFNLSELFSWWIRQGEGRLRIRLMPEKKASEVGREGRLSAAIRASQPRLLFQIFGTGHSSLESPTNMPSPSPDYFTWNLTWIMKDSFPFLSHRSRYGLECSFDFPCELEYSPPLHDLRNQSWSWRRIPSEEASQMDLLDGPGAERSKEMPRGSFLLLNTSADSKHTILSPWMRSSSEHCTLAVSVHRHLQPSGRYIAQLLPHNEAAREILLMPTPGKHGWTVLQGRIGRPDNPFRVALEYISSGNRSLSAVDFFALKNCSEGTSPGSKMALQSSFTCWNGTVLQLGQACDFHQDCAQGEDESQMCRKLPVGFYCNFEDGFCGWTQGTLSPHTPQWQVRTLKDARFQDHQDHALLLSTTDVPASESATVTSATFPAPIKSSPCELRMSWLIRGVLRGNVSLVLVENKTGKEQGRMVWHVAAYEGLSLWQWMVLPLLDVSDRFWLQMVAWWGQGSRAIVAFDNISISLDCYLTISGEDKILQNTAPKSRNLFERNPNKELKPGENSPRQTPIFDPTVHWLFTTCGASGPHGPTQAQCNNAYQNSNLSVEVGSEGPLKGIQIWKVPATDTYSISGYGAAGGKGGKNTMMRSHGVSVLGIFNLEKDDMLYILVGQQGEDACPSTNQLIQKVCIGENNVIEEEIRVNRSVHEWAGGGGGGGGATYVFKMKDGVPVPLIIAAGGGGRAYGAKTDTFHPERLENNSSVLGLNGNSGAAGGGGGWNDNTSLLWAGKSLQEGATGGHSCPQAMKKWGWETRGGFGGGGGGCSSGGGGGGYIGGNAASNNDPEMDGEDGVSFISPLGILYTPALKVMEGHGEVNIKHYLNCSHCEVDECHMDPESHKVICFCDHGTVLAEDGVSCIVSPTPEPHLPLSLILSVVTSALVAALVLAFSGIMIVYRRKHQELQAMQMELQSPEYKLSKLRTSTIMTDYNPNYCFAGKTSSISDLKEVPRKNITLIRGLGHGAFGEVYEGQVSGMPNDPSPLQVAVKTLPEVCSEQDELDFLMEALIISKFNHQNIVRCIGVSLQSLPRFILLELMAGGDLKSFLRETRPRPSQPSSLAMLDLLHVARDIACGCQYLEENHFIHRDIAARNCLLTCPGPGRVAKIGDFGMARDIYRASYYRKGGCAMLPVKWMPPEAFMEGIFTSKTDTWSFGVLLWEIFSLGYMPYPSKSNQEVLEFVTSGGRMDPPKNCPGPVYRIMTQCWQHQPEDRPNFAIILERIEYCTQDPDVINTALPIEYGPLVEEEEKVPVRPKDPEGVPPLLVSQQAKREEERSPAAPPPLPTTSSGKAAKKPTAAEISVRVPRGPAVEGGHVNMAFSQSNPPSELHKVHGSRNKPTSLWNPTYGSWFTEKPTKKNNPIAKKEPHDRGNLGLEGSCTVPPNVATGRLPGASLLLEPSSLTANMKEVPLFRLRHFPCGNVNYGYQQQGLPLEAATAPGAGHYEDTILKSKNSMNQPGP
From the text: 1. Inhibitory Activities of the Compounds of the Present Invention on Wild Type ALK Kinases
? experimental method ? HTRF KinEASE™-TK Assay kit from Cisbio company was used to detect inhibitory activities of the compounds on wildtype ALK kinases (wild type ALK kinases).
(§1) ? instrument ? Envision 2104 plate reader from PerKinElmer company.
(§2) ? experiment material ? HTRF KinEASE™-TK Assay Kit (Cisbio company, catalog No. 62TK0PEC); Wild Type ALK kinase (produced by Sino-US Crown Bioscience, Inc., batch number ALK 20110607); DTT (Gibco BRL company, catalog No. 15508-012); MgCl2 (Sigma Aldrich company, catalog No. M-2670); ATP (Sigma Aldrich company, catalog No. A-7699); DMSO (AMRESCO company, catalog No. 0231); EDTA (AMRESCO company, catalog No. 0105); 96 wells plates (for diluting compounds) (CITOTEST company, catalog No. Ref36020096D); OptiPlate™-384 (White), PerkinElmer company, catalog No. P12-004)
(§3) ? experimental condition ? Compounds (the final concentration of DMSO was 1%), the reaction substrate (the final concentration was 1 μM), ATP (the final concentration was 2004), and Wildtype ALK kinases (the final concentration was 1 ng/μl) were mixed respectively in a final volume of 10 μl reaction system (containing 5 mM MgCl2, 1× Kinase buffer, and 1 mM DTT). The mixture was reacted at 30° C. for 35 minutes after shaking for 30 seconds. After completion of the reaction, each well was added with 5 μl Sa-XL665 and 5 μl TK Antibody-Eu(K), and placed in the dark for 60 minutes to end the reaction after uniform mixing. The data was read from PerkinElmer EnVision plate reader ([…]), the 665/615 ratio was calculated, and the data was analyzed.
(§4) ? tested samples ? Compounds from the examples.
(§5) ? data analysis ? Minimum 665/615 ratio (Rmin, 665/615 ratio under the condition that 10.4 μM positive control drug LDK-378 was added)
(§6) Maximum 665/615 ratio (Rmax, 665/615 ratio under the condition that no compound was added)
(§7) Tested 665/615 ratio (Rcompound, 665/615 ratio under the condition that a given concentration of compound was added) Inhibition rate (%)=[1−(Rcompound−Rmin)/(Rmax−Rmin)]×100
(§8) ? data processing ? IC50 of compounds was calculated by using XLfit program in Excel.

cytochrome P450 3A4 = cytochrome P450 3A4 (Homo sapiens, UniProt P08684); assay: Inhibitory activity on cytochrome P450 3A4; type: in vitro ADME; details: no significant inhibition
Sequence of cytochrome P450 3A4 (P08684 whole entry): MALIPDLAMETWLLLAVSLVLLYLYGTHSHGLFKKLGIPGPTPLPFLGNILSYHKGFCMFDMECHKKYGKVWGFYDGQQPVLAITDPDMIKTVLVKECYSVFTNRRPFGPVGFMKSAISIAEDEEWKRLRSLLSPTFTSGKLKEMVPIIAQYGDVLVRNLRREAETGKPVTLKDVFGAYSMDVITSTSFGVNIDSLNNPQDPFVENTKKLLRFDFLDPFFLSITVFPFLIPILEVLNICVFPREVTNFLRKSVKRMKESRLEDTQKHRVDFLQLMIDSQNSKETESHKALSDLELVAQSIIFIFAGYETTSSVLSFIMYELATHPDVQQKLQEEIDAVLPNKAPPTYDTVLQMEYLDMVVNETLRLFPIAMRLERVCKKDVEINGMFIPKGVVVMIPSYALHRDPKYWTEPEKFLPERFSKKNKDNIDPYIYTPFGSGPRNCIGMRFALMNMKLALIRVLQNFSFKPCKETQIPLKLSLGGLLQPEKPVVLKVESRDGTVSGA

cytochrome P450 2D6 = cytochrome P450 2D6 (Homo sapiens, UniProt P10635); assay: Inhibitory activity on cytochrome P450 2D6; type: in vitro ADME; details: no significant inhibition
Sequence of cytochrome P450 2D6 (P10635 whole entry): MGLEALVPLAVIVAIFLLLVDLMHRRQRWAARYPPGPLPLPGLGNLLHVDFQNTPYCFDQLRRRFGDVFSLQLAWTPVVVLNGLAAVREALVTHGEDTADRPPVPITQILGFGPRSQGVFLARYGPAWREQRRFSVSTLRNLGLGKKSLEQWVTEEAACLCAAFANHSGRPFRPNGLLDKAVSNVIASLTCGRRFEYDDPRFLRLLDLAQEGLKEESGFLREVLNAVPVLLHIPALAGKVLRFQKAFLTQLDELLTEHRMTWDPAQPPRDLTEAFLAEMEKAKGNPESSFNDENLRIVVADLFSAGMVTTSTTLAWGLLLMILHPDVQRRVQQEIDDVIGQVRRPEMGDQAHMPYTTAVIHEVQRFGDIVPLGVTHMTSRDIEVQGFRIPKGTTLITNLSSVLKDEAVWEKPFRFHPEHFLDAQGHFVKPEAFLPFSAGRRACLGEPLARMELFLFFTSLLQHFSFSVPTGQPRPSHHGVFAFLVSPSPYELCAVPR

cytochrome P450 2C9 = cytochrome P450 2C9 (Homo sapiens, UniProt P11712); assay: Inhibitory activity on cytochrome P450 2C9; type: in vitro ADME; details: no significant inhibition
Sequence of cytochrome P450 2C9 (P11712 whole entry): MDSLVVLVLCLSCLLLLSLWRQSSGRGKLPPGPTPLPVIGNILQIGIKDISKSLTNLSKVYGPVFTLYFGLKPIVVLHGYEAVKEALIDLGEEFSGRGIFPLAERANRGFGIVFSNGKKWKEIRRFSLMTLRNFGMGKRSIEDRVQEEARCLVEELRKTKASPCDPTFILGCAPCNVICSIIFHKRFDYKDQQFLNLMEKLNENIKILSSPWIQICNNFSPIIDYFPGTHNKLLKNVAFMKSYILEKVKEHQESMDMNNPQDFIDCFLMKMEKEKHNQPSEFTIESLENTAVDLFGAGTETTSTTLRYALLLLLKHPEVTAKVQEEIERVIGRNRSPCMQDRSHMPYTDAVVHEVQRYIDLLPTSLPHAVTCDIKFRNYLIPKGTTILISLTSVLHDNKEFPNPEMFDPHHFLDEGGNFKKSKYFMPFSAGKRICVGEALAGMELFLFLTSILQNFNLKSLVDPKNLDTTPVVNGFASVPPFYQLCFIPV

L1196M mutant ALK kinase = target: T2, L1196M mutant ALK kinase (Homo sapiens, UniProt Q9UM73, L1196M); assay: HTRF KinEASE-TK assay, inhibitory activity on L1196M mutant ALK kinase; type: biochemical; details: L1196M mutant ALK 1 ng/μl, substrate 1 μM, ATP 5 μM, 30° C. 35 minutes, read-out: Inhibition on ALK kinases (L1196M mutant), IC50
T2 construct: purchased Sino-US Crown Bioscience, Inc. batch number ALKm_20110923
T2 sequence (Q9UM73 19-1620 L1196M): as the sequence (Q9UM73 19-1620) above, with L1178M counted along it
From the text: 2. Inhibitory Activities of the Compounds of the Present Invention on L1196M Mutant ALK Kinases
? experimental method ? HTRF KinEASE™-TK Assay kit from Cisbio company was used to detect inhibitory activities of the compounds on L1196M mutant ALK kinases.
as §1
as §2, with “L1196M mutant” for “Wild Type”, “ALKm_20110923);” for “ALK 20110607);”, “A-7699, batch number 051M7014V);” for “A-7699);”
as §3, with “5 μM),” for “2004),”, “L1196M mutant” for “Wildtype”
as §4, §5, §6, §7, §8

cytochrome P450 2C19 = cytochrome P450 2C19 (Homo sapiens, UniProt P33261); assay: Inhibitory activity on cytochrome P450 2C19; type: in vitro ADME; details: no significant inhibition
Sequence of cytochrome P450 2C19 (P33261 whole entry): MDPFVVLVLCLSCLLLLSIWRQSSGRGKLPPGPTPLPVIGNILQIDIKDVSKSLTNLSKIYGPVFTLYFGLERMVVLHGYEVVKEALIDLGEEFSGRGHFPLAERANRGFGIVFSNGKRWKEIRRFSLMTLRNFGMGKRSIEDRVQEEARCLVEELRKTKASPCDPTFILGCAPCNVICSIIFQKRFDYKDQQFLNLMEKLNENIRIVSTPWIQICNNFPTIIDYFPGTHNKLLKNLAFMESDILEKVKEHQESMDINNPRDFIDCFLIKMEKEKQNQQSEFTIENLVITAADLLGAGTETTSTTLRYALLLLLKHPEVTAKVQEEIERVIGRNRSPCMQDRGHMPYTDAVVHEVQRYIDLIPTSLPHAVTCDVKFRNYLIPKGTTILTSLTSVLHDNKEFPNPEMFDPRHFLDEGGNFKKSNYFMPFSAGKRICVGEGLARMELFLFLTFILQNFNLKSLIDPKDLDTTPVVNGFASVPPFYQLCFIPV

cytochrome P450 1A2 = target: T3, cytochrome P450 1A2 (Homo sapiens, UniProt P05177); assay: Inhibitory activity on cytochrome P450 1A2; type: in vitro ADME; details: no significant inhibition
T3 sequence (P05177 1-516): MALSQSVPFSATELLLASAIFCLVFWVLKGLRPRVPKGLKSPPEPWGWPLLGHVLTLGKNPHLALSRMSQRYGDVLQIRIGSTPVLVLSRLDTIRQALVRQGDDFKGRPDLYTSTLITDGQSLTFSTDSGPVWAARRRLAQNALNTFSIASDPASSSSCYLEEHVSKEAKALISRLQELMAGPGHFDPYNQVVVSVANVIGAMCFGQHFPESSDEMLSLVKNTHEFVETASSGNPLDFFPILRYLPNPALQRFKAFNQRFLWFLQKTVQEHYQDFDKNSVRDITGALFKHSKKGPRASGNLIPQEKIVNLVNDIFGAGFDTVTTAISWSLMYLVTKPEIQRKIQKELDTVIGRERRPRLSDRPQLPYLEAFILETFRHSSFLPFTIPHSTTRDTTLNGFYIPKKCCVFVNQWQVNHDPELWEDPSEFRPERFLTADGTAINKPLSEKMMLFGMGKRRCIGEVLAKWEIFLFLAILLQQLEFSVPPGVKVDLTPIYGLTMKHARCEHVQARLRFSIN

Karpas-299 cell line = assay: CellTiter-Glo cell proliferation inhibition on Karpas-299 cell line; type: cell-based; details: Homo sapiens, 96 h, Karpas-299 cells, 5000 cells/well, 4 days drug treatment
Procedure: 4. Cell Proliferation Inhibitory Activities of the Compounds of the Present Invention on Karpas-299 Cell Line
? experimental method ? CellTiter-Glo® Luminescent Cell Viability Assay kit from Promega company was used to detect cell proliferation inhibitory activities of the compounds on Karpas-299 cell line.
? instrument ? Envision 2104 plate reader from PerKinElmer company; Vi-Cell XR cell counter from Beckman Counter company; MCO-18AIC CO2 incubator from SANYO company.
? experiment material ? CellTiter-Glo® Luminescent Cell Viability Assay Kit (Promega company, catalog No. G7573); Karpas-299 cell line (DSMZ, catalog No. ACC31); RPMI-1640 medium (HyClone company, catalog No. SH30809.01B); fetal bovine serum (FBS) (Gibco company, catalog No. 10099-141); PBS (HyClone company, catalog No. SH30256.01B); 96 wells cell culture plate (Corning company, catalog No. 3610); DMSO (AMRESCO company, catalog No. 0231); 96 wells plates (for diluting compounds) (CITOTEST company, catalog No. Ref36020096D);
? experimental condition ? Karpas-299 cells in exponential growth phase were collected and viable cells were counted by Vi-Cell XR cell counter. Cell suspension was adjusted to 62500 cells/ml with culture medium (RPMI-1640+10% FBS). 80 μl cell suspension was added into each well of 96 wells cell culture plate so that so that the final cell number of Karpas-299 cells was 5000 cells/well. The cells were cultivated in an incubator with an atmosphere of 37° C., 5% CO2 and 95% humidity for 2 hours and then each well was added with 20 μl compounds in RPMI-1640 medium solution (the final concentration of DMSO was 0.5%). 4 days after drug treatment, each well was added with 50 μl CellTiter-Glo solution which was previously thawed and equilibrated to room temperature, and mixed for 2 minutes with microplate shaker. After placing at room temperature for 10 minutes, luminescence reading value was measured with PerkinElmer Envision 2104 plate reader and the data was analyzed.
? tested samples ? Compounds of the examples.
Luminescence value of DMSO solvent control (Vvehicle control, which is the mean luminescence value from DMSO solvent control group)
Tested luminescence value (Vsample, which is the luminescence value from given concentration of compounds group) Inhibition rate (%)=(1−Vsample/Vvehicle control)×100
as §8

NCI-H2228 cell line = assay: CellTiter-Glo cell proliferation inhibition on NCI-H2228 cell line; type: cell-based; details: Homo sapiens, NCI-H2228, 96 h, NCI-H2228 cells, 5000 cells/well, 4 days drug treatment
Summary of the method: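 NCI-H2228 cells, 5000/well in RPMI-1640 + 10% FBS, treated with compounds 2 h after seeding (0.5% DMSO final) for 4 days at 37° C. Viability by CellTiter-Glo luminescence; inhibition relative to DMSO control, IC50 from curve fit.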

Structure (SMILES) | IC50 (Wild Type ALK kinase) | IC50 (cytochrome P450 3A4) | IC50 (cytochrome P450 2D6) | IC50 (cytochrome P450 2C9) | IC50 (L1196M mutant ALK kinase) | IC50 (cytochrome P450 2C19) | IC50 (cytochrome P450 1A2) | IC50 (Karpas-299 cell line) | IC50 (NCI-H2228 cell line)
CC(C)S(=O)(=O)c1nn(C)cc1Nc1nc(Nc2cc(F)c(C3CCN(C)CC3)cc2OC2CC2)ncc1Cl [Final product 44] | 3 nM | > 10000 nM | > 10000 nM | > 10000 nM | 4 nM | > 10000 nM | > 10000 nM | – | –
Cc1cc(Nc2ncc(Cl)c(Nc3cn(C)nc3S(=O)(=O)C(C)C)n2)c(OC2CC2)cc1C1CCN(C)CC1 [Final product 51] | 2 nM | > 10000 nM | > 10000 nM | > 10000 nM | 4 nM | > 10000 nM | > 10000 nM | – | –
COC1CN(C)CCC1c1cc(OC2CC2)c(Nc2ncc(Cl)c(Nc3cn(C)nc3S(=O)(=O)CC(C)C)n2)cc1C (centres unmarked) [Final product 59] | – | – | – | – | – | – | – | 52 nM | 156 nM
Cc1cc(Nc2ncc(Cl)c(Nc3cn(C)nc3S(=O)(=O)C(C)C)n2)c(OC2CC2)cc1C1CCCN(C)C1 (centres unmarked) [Final product 60] | – | > 10000 nM | > 10000 nM | > 10000 nM | – | > 10000 nM | > 10000 nM | – | 28 nM
Cc1cc(Nc2ncc(Cl)c(Nc3cn(C)nc3S(=O)(=O)C(C)C)n2)c(OC(C)C)cc1C1CCN(C)CC1 [Final product 80] | 4 nM | > 10000 nM | > 10000 nM | > 10000 nM | 8 nM | > 10000 nM | > 10000 nM | – | –
COCCN1CCC(c2cc(OC3CC3)c(Nc3ncc(Cl)c(Nc4cn(C)nc4S(=O)(=O)CC(C)C)n3)cc2C)CC1 [Final product 83] | – | – | – | – | – | – | – | 11 nM | 53 nM
Cc1cc(Nc2ncc(Cl)c(Nc3cn(C)nc3S(=O)(=O)C(C)C)n2)c(OC(C)C)cc1C1CC(C)N(C)C(C)C1 (centres unmarked) [Final product 97] | – | > 10000 nM | > 10000 nM | > 10000 nM | – | > 10000 nM | > 10000 nM | – | 154 nM
Cc1cc(Nc2ncc(Cl)c(Nc3cn(C)nc3S(=O)(=O)C(C)C)n2)c(OC2CC2)cc1C1CCN(C)C(C)(C)C1 (centres unmarked) [Final product 100] | – | – | – | – | – | – | – | 6 nM | 61 nM
Cc1cc(Nc2ncc(Cl)c(Nc3cn(C)nc3S(=O)(=O)C(C)C)n2)c(OC2CC2)cc1C1CCN(C)C(=O)C1 (centres unmarked) [Final product 103] | – | – | – | – | – | – | – | 10 nM | 66 nM
Cc1cc(Nc2ncc(Cl)c(Nc3cn(C)nc3S(=O)(=O)C(C)C)n2)c(OC2CC2)cc1C1CCC(N2CCN(C)CC2)CC1 (centres unmarked) [Final product 202] | – | > 10000 nM | > 10000 nM | > 10000 nM | – | > 10000 nM | > 10000 nM | – | 141 nM
CNC(=O)CN1CCC(c2cc(OC)c(Nc3ncc(Cl)c(Nc4cc(C)n[nH]4)n3)cc2C)CC1 [Final product 216, reference compound] | 17 nM | – | – | – | 28 nM | – | – | – | 948 nM
Cc1cc(Nc2nc(Nc3cc(C)c(C4CCN(S(C)(=O)=O)CC4)cc3C)ncc2Cl)n[nH]1 [Final product 217, reference compound] | 20 nM | – | – | – | 69 nM | – | – | – | 1130 nM
Cc1cc(Nc2nc(Nc3cc(C)c([C@H]4CC[C@H](N5CCN(C)CC5)CC4)cc3F)ncc2Cl)[nH]n1 [Final product 218, reference compound] | 27 nM | – | – | – | 49 nM | – | – | – | 1070 nM
